# Test results from PMC11310081, “Deep-learning-enabled antibiotic discovery through molecular de-extinction” (Nature Biomedical Engineering, 2024).
# Peptide text beside a SMILES is read from it.
# How the values were obtained:
# [1] = system: E. faecalis ATCC 700802 (vancomycin-resistant strain); type: cell-based, Enterococcus faecalis; conditions: ATCC 700802, 20 h
# Excerpt: (§1) The following Gram-negative bacteria were used in our study: A. baumannii ATCC 19606, E. coli ATCC 11775, E. coli AIC221 (E. coli MG1655 phnE_2::FRT), E. coli AIC222 (E. coli MG1655 pmrA53 phnE_2::FRT (colistin resistant)), K. pneumoniae ATCC 13883, P. aeruginosa PAO1 and P. aeruginosa PA14. The following Gram-positive bacteria were also used in our study: S. aureus ATCC 12600, S. aureus ATCC BAA-1556 (methicillin-resistant strain), E. faecalis ATCC 700802 (vancomycin-resistant strain) and E. faecium ATCC 700221 (vancomycin-resistant strain). Bacteria were grown from frozen stocks and plated on Luria–Bertani (LB) or Pseudomonas isolation agar plates (P. aeruginosa strains) and incubated overnight at 37 °C. After the incubation period, a single colony was transferred to 5 ml of LB medium, and cultures were incubated overnight (16 h) at 37 °C. The following day, an inoculum was prepared by diluting the overnight cultures 1:100 in 5 ml of the respective media and incubating them at 37 °C until bacteria reached logarithmic phase (OD600 = 0.3–0.5).
# The in vitro antimicrobial activity of the peptides was assessed by using the broth microdilution assay. […] Aqueous solutions of the peptides were added to the plate at concentrations ranging from 1 to 64 μmol l^−1. […] The optical density of the plates was measured at 600 nm using a spectrophotometer. […]
# E. coli AIC221 = type: cell-based, Escherichia coli; conditions: AIC221, 20 h
# Outline: (§2)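 Antimicrobial activity is measured by broth microdilution against log-phase bacteria (OD600 0.3–0.5). Peptide range: 1 to 64 μmol l^−1.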
# E. coli ATCC 11775 = type: cell-based, Escherichia coli; conditions: ATCC 11775, 20 h
# Outline: as §2
# [2] = system: E. faecium ATCC 700221 (vancomycin-resistant strain); type: cell-based, Enterococcus faecium; conditions: ATCC 700221, 20 h
# Outline: as §2
# [3] = system: S. aureus ATCC BAA-1556 (methicillin-resistant strain); type: cell-based, Staphylococcus aureus; conditions: ATCC BAA-1556, 20 h
# Excerpt: as §1
# (§3) The in vitro antimicrobial activity of the peptides was assessed by using the broth microdilution assay. […] Aqueous solutions of the peptides were added to the plate at concentrations ranging from 1 to 64 μmol l^−1. […] The optical density of the plates was measured at 600 nm using a spectrophotometer. All assays were done as three biological replicates.
# S. aureus ATCC 12600 = type: cell-based, Staphylococcus aureus; conditions: ATCC 12600, 20 h
# Excerpt: as §1, §3
# [4] = system: 11 clinically relevant bacterial pathogens; type: cell-based; conditions: for Active or Inactive: Supplementary Dataset 2, against the 11 pathogens tested; for MIC (lowest MIC value in the antimicrobial activity assays): Supplementary Table 17, lowest MIC among the strains tested
# Outline: as §2
# K. pneumoniae ATCC 13883 = type: cell-based, Klebsiella pneumoniae; conditions: ATCC 13883, 20 h
# Outline: as §2
Structure (SMILES),"Minimal inhibitory concentration, E. faecalis ATCC700802-VRE [1] [µmol/L]","Minimal inhibitory concentration, E. coli AIC221 (E. coli AIC221) [µmol/L]","Minimal inhibitory concentration, E. coli ATCC11775 (E. coli ATCC 11775) [µmol/L]","Minimal inhibitory concentration, E. faecium ATCC700221-VRE [2] [µmol/L]","Minimal inhibitory concentration, S. aureus ATCC BAA-1556-MRSA [3] [µmol/L]","Minimal inhibitory concentration, S. aureus ATCC12600 (S. aureus ATCC 12600) [µmol/L]",Active or Inactive [4],MIC (lowest MIC value in the antimicrobial activity assays) [4] [µmol/L],"Minimal inhibitory concentration, K. pneumoniae ATCC133883 (K. pneumoniae ATCC 13883) [µmol/L]"
CC[C@H](C)[C@H](N)C(=O)N[C@@H](Cc1ccccc1)C(=O)N[C@@H](CC(C)C)C(=O)N[C@@H](Cc1c[nH]cn1)C(=O)N[C@@H](CC(C)C)C(=O)N[C@@H](CCCCN)C(=O)N[C@H](C(=O)N[C@@H](CC(C)C)C(=O)N[C@@H](CCCCN)C(=O)N[C@H](C(=O)N[C@H](C(=O)N[C@@H](CCCNC(=N)N)C(=O)N[C@@H](CC(C)C)C(=O)N[C@@H](CC(C)C)C(=O)O)[C@@H](C)CC)[C@@H](C)CC)[C@@H](C)CC [Elephasin-2] (H-IFLHLKILKIIRLL-OH; N-terminus and C-terminus assumed),8,2,16,1,1,1,Active,1,
CC[C@H](C)[C@H](NC(=O)[C@H](CO)NC(=O)[C@H](CCCNC(=N)N)NC(=O)[C@H](C)NC(=O)[C@H](Cc1c[nH]cn1)NC(=O)[C@H](CC(C)C)NC(=O)[C@H](CS)NC(=O)[C@H](C)NC(=O)[C@@H](N)CCCNC(=N)N)C(=O)N[C@@H](C)C(=O)N[C@@H](CCCNC(=N)N)C(=O)N[C@@H](CC(C)C)C(=O)N[C@@H](Cc1c[nH]cn1)C(=O)N[C@@H](CCCCN)C(=O)N[C@@H](CCCNC(=N)N)C(=O)N[C@@H](Cc1c[nH]c2ccccc12)C(=O)N[C@@H](CCCNC(=N)N)C(=O)N1CCC[C@H]1C(=O)N[C@H](C(=O)N[C@@H](Cc1c[nH]cn1)C(=O)N[C@@H](CCC(N)=O)C(=O)NCC(=O)N[C@@H](CC(C)C)C(=O)NCC(=O)N[C@@H](CC(C)C)C(=O)N[C@@H](CCCCN)C(=O)O)C(C)C [Mammuthusin-2] (H-RACLHARSIARLHKRWRPVHQGLGLK-OH; N-terminus and C-terminus assumed),,,,,,,Active,32,
CC[C@H](C)[C@H](NC(=O)[C@@H](N)CC(C)C)C(=O)N[C@H](C(=O)N[C@@H](CS)C(=O)N[C@@H](Cc1ccccc1)C(=O)N[C@@H](Cc1ccccc1)C(=O)N[C@@H](CCCNC(=N)N)C(=O)N[C@@H](CCC(N)=O)C(=O)N[C@@H](CC(C)C)C(=O)N[C@@H](CCCCN)C(=O)N[C@@H](Cc1ccccc1)C(=O)N[C@@H](Cc1c[nH]cn1)C(=O)N[C@@H](Cc1ccccc1)C(=O)O)C(C)C [Megalocerin-1] (H-LIVCFFRQLKFHF-OH; N-terminus and C-terminus assumed),,,,8,,,Active,8,64
CC(C)C[C@H](NC(=O)CNC(=O)[C@H](CCCNC(=N)N)NC(=O)[C@H](CCCCN)NC(=O)[C@H](CCCNC(=N)N)NC(=O)[C@@H](N)CCCCN)C(=O)N[C@@H](CCCCN)C(=O)N[C@@H](CC(C)C)C(=O)N[C@@H](C)C(=O)N[C@H](C(=O)N[C@@H](C)C(=O)N[C@@H](CC(C)C)C(=O)N[C@@H](CO)C(=O)N[C@@H](CC(C)C)C(=O)N[C@@H](CC(N)=O)C(=O)N[C@@H](CC(N)=O)C(=O)N[C@@H](CCCCN)C(=O)N[C@@H](Cc1ccccc1)C(=O)O)[C@@H](C)O [Mylodonin-2] (H-KRKRGLKLATALSLNNKF-OH; N-terminus and C-terminus assumed),,,,,,,Active,,
